Measurements: patent US20230172867A1, “A METHOD FOR TREATING CANCER WITH AN ORAL DOSAGE FORM OF AN FGFR4 INHIBITOR” (Eisai R&D Management Co., Ltd., priority 2020, published 2023)
“Also recorded” adds a separate entry of the source. Read-outs that look alike come from different tables or passages of the source.

Experiment: Pharmacokinetic measurements of H3B-6527 capsules in patients (trial NCT02834780), plasma LC-MS/MS
Type: in vivo, human
Settings: for Cmax / half-life / Tmax / AUC: human, plasma, oral; for Cmax: read-out: Cmax, geometric mean (CV%); for half-life: read-out: Half-life, geometric mean (CV%) (converted); for Tmax: read-out: Tmax, median (min-max); for AUC: read-out: AUC, geometric mean (CV%)
Source text: A description of the first in human clinical trial for H3B-6527 can be found at the ClinicalTrials.gov by searching for trial identifier NCT02834780. In summary, the trial included a study population having the following characteristics: Adult patients ≥18 years old with advanced HCC or ICC; Progression after at least one prior therapy; ECOG score of 0 or 1; Well compensated liver function; FGF19-positive (dose expansion phase only); Excluded if patients have significant active infections [except hepatitis B virus (HBV) and hepatitis C virus (HCV)], gastric or esophageal varices, or previous FGF19-FGFR4 targeted therapy.
Blood samples are collected at the planned time points from each patient and centrifuged. The plasma portion of each sample is then transferred to a K2EDTA tube, which is then shipped to a bioanalytical lab for concentration measurement using LC-MS/MS. The concentration data are then analyzed using Phoenix® WinNonlin software to obtain PK parameters. The obtained PK parameters are further summarized using analytical software.
Drug Administration and Dosage for Dose Escalation: H3B-6527 was administered orally QD or BID on a 21-day cycle. […] Patients in dose escalation phase were treated regardless of FGF19 status. Response determined by RECIST 1.1/modified RECIST every 6 weeks
Further collection and collation of the PK results of the trial of Example 2 at a later point in time are reflected in the following Table 5:
The results of further analysis of the PK data of the trial of Example 2 with the actual date and time of the dose administration and PK sampling after QC, an update from the results of a preliminary analysis with the nominal (i.e. planned) dosing/PK sampling date/time presented in Example 3, are reflected in the following Table 6. In this example the number of patients from which each PK parameter was calculated is shown, rather than the total number of patients receiving a particular dose and regimen as in Table 5.

[1] = 300 mg, 300 mg QD, fasted, Day 1, Table 5, nominal times
[2] = 300 mg, 300 mg QD, fasted, Day 1, Table 6, actual times after QC
[3] = 300 mg, 300 mg QD, fasted, Day 8, Table 5, nominal times
[4] = 300 mg, 300 mg QD, fasted, Day 8, Table 6, actual times after QC
[5] = 500 mg, 500 mg BID, fasted, Day 1, Table 5, nominal times
[6] = 500 mg, 500 mg BID, fasted, Day 1, Table 6, actual times after QC
[7] = 500 mg, 500 mg BID, fasted, Day 8, Table 5, nominal times
[8] = 500 mg, 500 mg BID, fasted, Day 8, Table 6, actual times after QC
[9] = 500 mg, 500 mg BID, fed, Day 1, Table 5, nominal times
[10] = 500 mg, 500 mg BID, fed, Day 1, Table 6, actual times after QC
[11] = 500 mg, 500 mg BID, fed, Day 8, Table 5, nominal times
[12] = 500 mg, 500 mg BID, fed, Day 8, Table 6, actual times after QC
[13] = 600 mg, 600 mg QD, fasted, Day 1, Table 5, nominal times
[14] = 600 mg, 600 mg QD, fasted, Day 1, Table 6, actual times after QC
[15] = 600 mg, 600 mg QD, fasted, Day 8, Table 5, nominal times
[16] = 600 mg, 600 mg QD, fasted, Day 8, Table 6, actual times after QC
[17] = 600 mg, 600 mg QD, fed, Day 1, Table 5, nominal times
[18] = 600 mg, 600 mg QD, fed, Day 1, Table 6, actual times after QC
[19] = 600 mg, 600 mg QD, fed, Day 8, Table 5, nominal times

SMILES: C=CC(=O)Nc1cc(N2CCN(CC)CC2)ccc1Nc1cc(N(C)C(=O)Nc2c(Cl)c(OC)cc(OC)c2Cl)ncn1 [H3B-6527, N-(2-((6-(3-(2,6-dichloro-3,5-dimethoxyphenyl)-1-methylureido)pyrimidin-4-yl)amino)-5-(4-ethylpiperazin-1-yl)phenyl)acrylamide]
- AUC, geometric mean (CV%) (300 mg QD, fasted, Day 1, Table 5, nominal times): 73 ng·h/mL
- AUC, geometric mean (CV%) (300 mg QD, fasted, Day 8, Table 5, nominal times): 53 ng·h/mL
- AUC, geometric mean (CV%) (500 mg BID, fasted, Day 1, Table 5, nominal times): 470 ng·h/mL
- AUC, geometric mean (CV%) (500 mg BID, fasted, Day 8, Table 5, nominal times): 1200 ng·h/mL
- AUC, geometric mean (CV%) (500 mg BID, fed, Day 1, Table 5, nominal times): 769 ng·h/mL
- AUC, geometric mean (CV%) (500 mg BID, fed, Day 8, Table 5, nominal times): 1080 ng·h/mL
- exposure in plasma across doses (500 mg to 2000 mg administered with food (FIG. 4)): appeared to be similar across the doses from 500 mg to 2000 mg
- AUC, geometric mean (CV%) (600 mg QD, fasted, Day 1, Table 5, nominal times): 175 ng·h/mL
- AUC, geometric mean (CV%) (600 mg QD, fasted, Day 8, Table 5, nominal times): 636 ng·h/mL
- AUC, geometric mean (CV%) (600 mg QD, fed, Day 1, Table 5, nominal times): 1280 ng·h/mL
- AUC, geometric mean (CV%) (600 mg QD, fed, Day 8, Table 5, nominal times): 502 ng·h/mL
- AUC, geometric mean (CV%) (700 mg BID, fed, Day 1, Table 5, nominal times): 590 ng·h/mL
- AUC, geometric mean (CV%) (700 mg BID, fed, Day 8, Table 5, nominal times): 640 ng·h/mL
- AUC, geometric mean (CV%) (1000 mg QD, fasted, Day 1, Table 5, nominal times): 602 ng·h/mL
- AUC, geometric mean (CV%) (1000 mg QD, fasted, Day 8, Table 5, nominal times): 912 ng·h/mL
- AUC, geometric mean (CV%) (1000 mg QD, fed, Day 1, Table 5, nominal times): 1100 ng·h/mL
- AUC, geometric mean (CV%) (1000 mg QD, fed, Day 8, Table 5, nominal times): 865 ng·h/mL
- AUC, geometric mean (CV%) (1400 mg QD, fasted, Day 1, Table 5, nominal times): 400 ng·h/mL
- AUC, geometric mean (CV%) (1400 mg QD, fasted, Day 8, Table 5, nominal times): 1450 ng·h/mL
- AUC, geometric mean (CV%) (1400 mg QD, fed, Day 1, Table 5, nominal times): 5670 ng·h/mL
- AUC, geometric mean (CV%) (1400 mg QD, fed, Day 8, Table 5, nominal times): 5450 ng·h/mL
- AUC, geometric mean (CV%) (2000 mg QD, fed, Day 1, Table 5, nominal times): 3030 ng·h/mL
- AUC, geometric mean (CV%) (2000 mg QD, fed, Day 8, Table 5, nominal times): 1920 ng·h/mL
- minimal plasma concentration, BID versus QD schedule (Cycle 1, Day 8 (FIG. 1)): A higher minimal plasma concentration was maintained on the BID schedule
- plasma levels / exposure versus dose (QD, fasted, Cycle 1, Day 8 (FIG. 1), preliminary PK analysis): increased with dose from 300 to 1000 mg QD and plateaued; also recorded: increased with dose up to 1000 mg QD
- Cmax [1]: 20 ng/mL
- half-life [1]: 1.4 h
- Tmax [1]: 2 h
- AUC [2]: 72.7 ng·h/mL
- Cmax [2]: 20.3 ng/mL
- half-life [2]: 2.52 h
- Tmax [2]: 2 h
- Cmax [3]: 11 ng/mL
- half-life [3]: 1.2 h
- Tmax [3]: 4 h
- AUC [4]: 53 ng·h/mL
- Cmax [4]: 10.8 ng/mL
- half-life [4]: 3.55 h
- Tmax [4]: 4 h
- Cmax [5]: 124 ng/mL
- half-life [5]: 1.9 h
- Tmax [5]: 2.75 h
- AUC [6]: 292 ng·h/mL
- Cmax [6]: 124 ng/mL
- half-life [6]: 2.41 h
- Tmax [6]: 2.12 h
- Cmax [7]: 253 ng/mL
- half-life [7]: 1.8 h
- Tmax [7]: 3.05 h
- AUC [8]: 1110 ng·h/mL
- Cmax [8]: 251 ng/mL
- half-life [8]: 2.96 h
- Tmax [8]: 4 h
- Cmax [9]: 255 ng/mL
- half-life [9]: 2.1 h
- Tmax [9]: 4.02 h
- AUC [10]: 768 ng·h/mL
- Cmax [10]: 255 ng/mL
- half-life [10]: 2.33 h
- Tmax [10]: 4.02 h
- Cmax [11]: 262 ng/mL
- half-life [11]: 2.3 h
- Tmax [11]: 4 h
- AUC [12]: 814 ng·h/mL
- Cmax [12]: 211 ng/mL
- half-life [12]: 2.99 h
- Tmax [12]: 4 h
- Cmax [13]: 74 ng/mL
- half-life [13]: 2.4 h
- Tmax [13]: 1 h
- AUC [14]: 175 ng·h/mL
- Cmax [14]: 74.5 ng/mL
- half-life [14]: 7.19 h
- Tmax [14]: 1 h
- Cmax [15]: 194 ng/mL
- half-life [15]: 4.8 h
- Tmax [15]: 0.52 h
- AUC [16]: 636 ng·h/mL
- Cmax [16]: 194 ng/mL
- half-life [16]: 7.32 h
- Tmax [16]: 0.52 h
- Cmax [17]: 241 ng/mL
- half-life [17]: 3.7 h
- Tmax [17]: 4 h
- AUC [18]: 1630 ng·h/mL
- Cmax [18]: 395 ng/mL
- half-life [18]: 3.72 h
- Tmax [18]: 4 h
- Cmax [19]: 100 ng/mL
- half-life [19]: 3.2 h
